Assays:
[1] = Gravimetric Vapour Sorption (GVS); assay type: physicochemical
Method: In some embodiments, sorption isotherms were obtained using a SMS DVS Intrinsic moisture sorption analyzer, controlled by SMS Analysis Suite software. The sample temperature was maintained at 25° C. by the instrument controls. The humidity was controlled by mixing streams of dry and wet nitrogen, with a total flow rate of 200 ml·min−1. The relative humidity was measured by a calibrated Rotronic probe (dynamic range of 1.0-100% RH), located near the sample. The weight change (mass relaxation) of the sample as a function of % RH was constantly monitored by the microbalance (accuracy ±0.005 mg). Typically 5-20 mg of sample was placed in a tared mesh stainless steel basket under ambient conditions. The sample was loaded and unloaded at 40% RH and 25° C. (typical room conditions). A moisture sorption isotherm was performed as outlined below (2 scans giving 1 complete cycle). The standard isotherm was performed at 25° C. at 10% RH intervals over a 0.5-90% RH range.
The sample was recovered after completion of the isotherm and re-analyzed by XRPD.

[2] = Solid form stability on storage at elevated relative humidity (XRPD); assay type: physicochemical
Source text: X-Ray powder diffraction patterns were collected on a Bruker AXS C2 GADDS or Bruker AXS D8 Advance diffractometer.
X-Ray Powder Diffraction patterns were collected on a Bruker D8 diffractometer using Cu Kα radiation (40 kV, 40 mA), θ−2θ goniometer, and divergence of V4 and receiving slits, a Ge monochromator and a Lynxeye detector. The instrument was performance checked using a certified Corundum standard (NIST 1976). The software used for data collection was Diffrac Plus XRD Commander v2.5.0 and the data were analyzed and presented using Diffrac Plus EVA v 11.0.0.2 or v 13.0.0.2. Samples were run under ambient conditions as flat plate specimens using powder. Approximately 5 mg of the sample was gently packed into a cavity cut into polished, zero-background (510) silicon wafer. The sample was rotated in its own plane during analysis. The details of the data collection are: • Angular range: 2 to 42° 2θ • Step size: 0.05° 2θ • Collection time: 0.5 s·step^−1

[3] = Solubility assessment at various pH levels (solubility profile); assay type: physicochemical; conditions: 0.15M NaCl solution, saline or isotonic, thermodynamic from solid
Method: For solubility assessment at various pH levels sufficient material to produce a maximum concentration of 10 mg·ml^−1 of API was treated with 0.15M NaCl solution and then the pH adjusted with HCl or NaOH solutions to achieve the desired pH levels. The suspensions were allowed to equilibrate for 2 hours and the pH measured and adjusted if necessary. Suspensions were then filtered and the amount of dissolved API quantified by HPLC against a standard reference solution.
Analysis was performed on an Agilent HP1100 series system equipped with a diode array detector and using ChemStation software vB.02.01-SR1.
The solubility of both the free acid and amorphous sodium salt was determined at a range of pH values.

[4] = Metabolite identification in liver microsomes; assay type: in vitro ADME, rat, dog, monkey, human; conditions: 30 μM Compound 1, 60 minutes
Method: To determine the qualitative metabolic profile, 30 μM of Compound 1 was incubated aerobically with rat, dog, monkey, or human liver microsomes (1 mg/mL). The incubations were performed in phosphate buffer at pH 7.4, 37° C., with the reaction initiated by the addition of P-NADPH, GSH and/or UDPGA (1, 5 and 2 mM final concentration, respectively). The reaction was terminated by the addition of 3 times incubation volume of acetonitrile after 60 minutes. The sample was centrifuged and the supernatant was transferred, nitrogen blow dried and reconstituted in 50% acetonitrile in water for LC/MS analysis.
(§1) LC/MS/MS analysis was carried out with a Sciex API-4000Qtrap tandem mass spectrometer (Applied Biosystems/Life Technologies, Carlsbad, Calif.) interfaced to a high-performance liquid chromatography system consisting of an Agilent 1200 series pump (Foster City, Calif.) and a LEAP Technologies PAL autoinjector (Carrboro, N.C.).
(§2) Parent/metabolite analysis was conducted in the positive ion mode (ESI) by multiple reaction monitoring of parent. The mobile phases contained 10 mM ammonium acetate in water with 0.05% formic acid (solvent A) and 10 mM ammonium acetate in 50% acetonitrile/50% methanol with 0.05% formic acid (solvent B). For Compound 1, the flow rate was maintained at 1 mL/min and the total run time was 2.5 min. Analytes were separated on a YMC ODS-AQ column (2.1×150 mm; 3 μm) and eluted with a linear gradient as follows: • 1. mobile phase was held for 0.5 min at 5% B, • 2. B was increased from 5% to 95% over the next 0.2 min, • 3. B was held constant for 1.3 min at 95%, and • 4. B was returned to the initial gradient conditions.
(§3) GSH adducts were investigated in microsomes, hepatocytes and rat bile using several methods including the neutral loss of pyroglutamate (129 Da) as well as a precursor ion scans of Compound 1 (105 Da, 318 Da and 438 Da).
For metabolite quantitation, the flow rate was maintained at 0.25 mL/min and the total run time was 60 min. Analytes were separated using a linear gradient as follows: • 1. mobile phase was held for 5 min at 5% B, • 2. […]

[5] = Metabolites generated in vivo (rat bile and urine, rat and dog plasma); conditions: Compound 2 IV 2 mg/kg, bile duct cannulated rats
Method: Compound 2 (2 mg/kg) was administered intravenously (IV) to fasted rats as a solution in 0.9% saline via a bolus injection into the jugular vein (2 mg/mL; […]).
Rats with surgically placed bile duct and jugular vein cannula were purchased from Charles River Laboratories and allowed to acclimate for 2 days. Compound 2 was intravenously dosed (2 mg/kg) to three rats as a solution in 0.9% saline (2 mg/mL; 1 mL/kg). Bile samples were collected at time-points 0-2, 2-5 and 5-8, and urine samples were collected at time-points 0-4 and 4-8 hrs post-dose in 8 mL scintillation vials and stored at −40° C. until analysis.
Concentrations of Compound 1 in rat plasma were determined by LC-MS/MS after protein precipitation. Rat plasma (100 μL) was treated with 400 μL of internal standard solution (ISTD, buspirone in acetonitrile containing 1.5% acetic acid) to precipitate proteins. Samples were vortexed and then centrifuged for 10 min at approximately 4,000 rpm (3700×g) at 4° C. (Beckman centrifuge, Brea, Calif.).
as §2
For metabolite quantitation, the flow rate was maintained at 0.25 mL/min and the total run time was 60 min. Analytes were separated using a linear gradient as follows: • 1. mobile phase was held for 5 min at 5% B, • 2. B was increased from 5% to 95% over the next 45 min. • 3. B was held constant for 5 min at 95%, and • 4. B was returned to the initial gradient conditions

[6] = Metabolite identification in hepatocytes; assay type: in vitro ADME, rat, dog, monkey, human; conditions: 30 μM Compound 1
Method: Rat, dog, monkey, or human hepatocytes were thawed according to the supplier's instructions. Cells were counted using the Trypan Blue method, and then diluted to 1×10^6 viable cells/ml with KB medium. Compound 1 was tested at 30 μM and incubated for up to 2 hours in rat hepatocytes and 4 hours in dog, monkey or human hepatocytes at 37° C. Reactions were terminated with addition of 3 times incubation volume of acetonitrile, centrifuged, and supernatants were transferred, nitrogen blow dried and reconstituted in 50% acetonitrile in water for LC/MS analysis.
as §1, §2, §3
For metabolite quantitation, the flow rate was maintained at 0.25 mL/min and the total run time was 60 min. Analytes were separated using a linear gradient as follows: • 1. mobile phase was held for 5 min at 5% B, • 2. B was increased from 5% to 95% over the next 45 min. • 3. […]

[7] = 40° C./75% RH for one week, sodium salt

Cc1noc(-c2ccc(-c3ccc(C4(C(=O)[O-])CC4)cc3)cc2)c1NC(=O)O[C@H](C)c1ccccc1.[Na+] [Amorphous Compound 2, 1-{4′-[3-methyl-4-((R)-1-phenyl-ethoxycarbonylamino)-isoxazol-5-yl]-biphenyl-4-yl}-cyclopropanecarboxylic acid, sodium salt]
change of form after GVS analysis (XRPD) [1]: No change of form is observed
mass gain between 0% and 90% relative humidity ([1]; 25° C.): more than 20%
XRPD / solid form after storage [2, 7]: remains largely amorphous

Cc1noc(-c2ccc(-c3ccc(C4(C(=O)[O-])CC4)cc3)cc2)c1NC(=O)O[C@H](C)c1ccccc1.[Na+] [Compound 2 (Amorphous)]
solubility at 2 h ([3]; Target pH 3, pH adjusted with HCl or NaOH): < 1 µg/mL
solubility at 2 h ([3]; Target pH 4, pH adjusted with HCl or NaOH): < 1 µg/mL
solubility at 2 h ([3]; Target pH 5, pH adjusted with HCl or NaOH): < 1 µg/mL
solubility at 2 h ([3]; Target pH 6, pH adjusted with HCl or NaOH): 1.7 µg/mL
solubility at 2 h ([3]; Target pH 7, pH adjusted with HCl or NaOH): 300 µg/mL
solubility at 2 h ([3]; Target pH 8, pH adjusted with HCl or NaOH): 5600 µg/mL
solubility at 2 h ([3]; Target pH 9, pH adjusted with HCl or NaOH): 17000 µg/mL
solubility at 2 h ([3]; Target pH 11, pH adjusted with HCl or NaOH): 16000 µg/mL

Cc1noc(-c2ccc(-c3ccc(C4(C(=O)ON[C@H](C=O)CCC(=O)O)CC4)cc3)cc2)c1NC(=O)O[C@H](C)c1ccccc1 [Compound M1]
metabolite observed in liver microsomes [4]: major metabolites
metabolite observed in rat bile [5]: major metabolites
metabolite observed in hepatocytes [6]: major metabolites

Cc1noc(-c2ccc(-c3ccc(C4(C(=O)O)CC4)cc3)cc2)c1NC(=O)O[C@H](C)c1cccc(O)c1 [Compound M4]
metabolite observed in liver microsomes [4]: observed
metabolite observed in rat bile [5]: observed
metabolite observed in hepatocytes [6]: observed

Cc1noc(-c2ccc(-c3ccc(C4(C(=O)[O-])CC4)cc3)cc2)c1NC(=O)O[C@H](C)c1ccccc1.[Na+] [Crystalline Compound 2 (Pattern 1), 1-{4′-[3-methyl-4-((R)-1-phenyl-ethoxycarbonylamino)-isoxazol-5-yl]-biphenyl-4-yl}-cyclopropanecarboxylic acid, sodium salt]
hygroscopicity (comparison) [1]: lower hygroscopicity than its amorphous counterpart
XRPD / solid form after storage ([2]; 25° C./95% RH, a week): no loss of crystallinity
XRPD / solid form after storage [2, 7]: no loss of crystallinity

— patent US20170121295A1, “POLYCYCLIC LPA1 ANTAGONIST AND USES THEREOF” (AMIRA PHARMACEUTICALS, INC., priority 2010, published 2017)
